Experimental data as given in patent publication US20090176839A1, “FORMULATIONS OF 3-(6-(1-(2,2-DIFLUOROBENZO[D][1,3]DIOXOL-5-YL) CYCLOPROPANECARBOXAMIDO)-3-METHYLPYRIDIN-2-YL)BENZOIC ACID” (priority 2007, published 2009).
pKi: −log10 of the molar value. Like-named read-outs stand apart in the source and are kept apart here.

Legend:
mice = test: Acute oral toxicity study in mice; conditions: mice; single oral doses 500, 1000 or 2000 mg/kg
Experimental: (§1) The intended clinical route of administration is oral, thus oral toxicity studies were done in mice, rats and dogs. […] Effects of repeat oral dosing were assessed in rats and dogs in preliminary 7-day toxicity studies followed by a 14-day GLP1 toxicity studies.

[1] = Acute oral toxicity study in mice; conditions: mouse, in vivo, po
Experimental: as §1

[2] = Tissue distribution in male rats after single oral dose of 75 mg/kg; assay type: in vivo, male Sprague Dawley rats; conditions: 75 mg/kg oral; for Kp at 1 h / Kp at 4 hr / Kp at 12 hr / Kp / Kp at 48 hr: po, 75 mg/kg
Experimental: Following a single oral administration of unlabelled Compound 1 to rats, the highest distribution was to the liver followed by lung, pancreas and brain with tissue-to-plasma ratios of 0.73, 0.19, 0.13 and 0.02, respectively, at one hour following oral administration of 75 mg/kg. Elimination of Compound 1 was nearly complete from all tissues 48 hours after administration (concentrations less than 1 μg/mL). Although the distribution to the lung is low relative to plasma, the concentrations measured in lung at low and moderate doses are predicted to be efficacious.

[3] = Oral pharmacokinetics of Compound 1 in fed or fasted male dogs at 10 mg/kg; assay type: in vivo, male beagle dogs; conditions: for concentration at 48 hr: oral, read-out: Clast
Experimental: Non-validated research grade assays were used for these analyses. All pharmacokinetic studies were conducted using fed animals unless otherwise specified.
The oral pharmacokinetics of Compound 1 were determined under fed and fasted conditions in male beagle dogs following a single 10 mg/kg administration (Table 6). […] The tmax occurred sooner after administration in the fasted state (1.5 hours) than in the fed state (2.7 hours). The variability of the systemic exposure of Compound 1 was higher under fed conditions (CV of 67% for AUC0-INF) than under fasted conditions (CV of 27% for AUC0-INF), possibly due to changes in stomach emptying time under fed conditions.

[4] = biological target: T1, Thromboxane A2 (TXA2) receptor (TP receptor) (Homo sapiens, UniProt P21731); test: Radiolabel binding counter screen (MDS Pharma Services)
T1 construct: MDS Pharma Services MDSPS PT#: 1083321
T1 sequence (P21731 1-343): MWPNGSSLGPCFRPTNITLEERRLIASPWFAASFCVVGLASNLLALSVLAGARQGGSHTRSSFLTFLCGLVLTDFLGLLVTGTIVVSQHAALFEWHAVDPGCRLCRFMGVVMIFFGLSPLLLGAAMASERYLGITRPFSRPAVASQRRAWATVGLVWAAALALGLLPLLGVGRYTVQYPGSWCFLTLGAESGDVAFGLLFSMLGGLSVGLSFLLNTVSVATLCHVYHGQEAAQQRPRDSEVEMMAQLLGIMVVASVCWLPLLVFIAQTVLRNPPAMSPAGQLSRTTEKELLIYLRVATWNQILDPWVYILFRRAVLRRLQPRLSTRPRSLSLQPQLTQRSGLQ
Excerpt: Compound 1 was counter screened against a broad panel of enzymes and receptors using radiolabel binding studies (see MDS Pharma Services, LeadProfiling and SpectrumScreen, MDSPS PT#: 1083321).

in vivo = test: in vivo; set-up: species or system dogs; conditions: both sexes, dog
Experimental: (§2) One dog per gender was dosed orally with the vehicle (0.5% methylcellulose+0.5% Tween80 in water), or 25, 50, or 100 mg/kg/day Compound 1 for 7 consecutive days. The dose volume was 5 mL/kg/day for all dose groups. Plasma samples were collected on Days 1 and 7 for TK analysis and viability, clinical observations, body weights, feed consumption, clinical pathology (termination), organ weights, macroscopic observations, and microscopic pathology were evaluated.

dogs = test: in vivo; conditions: dog
Experimental: as §2

[5] = Sprague Dawley, rat, male rats, Brain
[6] = Sprague Dawley, rat, male rats, Liver
[7] = Sprague Dawley, rat, male rats, Lung
[8] = Sprague Dawley, rat, male rats, Pancreas
[9] = Sprague Dawley, rat, male rats, Plasma
[10] = male, beagle, dog, plasma, po, 10 mg/kg, male dogs, Fasted
[11] = male, beagle, dog, plasma, po, 10 mg/kg, male dogs, Fed

Cc1ccc(NC(=O)C2(c3ccc4c(c3)OC(F)(F)O4)CC2)nc1-c1cccc(C(=O)O)c1 [Compound 1, 3-(6-(1-(2,2-difluorobenzo[d][1,3]dioxol-5-yl)cyclopropanecarboxamido)-3-methylpyridin-2-yl)benzoic acid]
organ weights and gross observations at necropsy (mice): no effects on organ weights and no gross observations | MTD at 14 days [1]: > 2000 mg/kg | NOAEL at 14 days [1]: > 2000 mg/kg | Cmax [2, 5]: 957 ng/mL | Tmax [2, 5]: 4 h | AUC ([2]; Sprague Dawley, rat, male rats, Brain, footnote a: AUCall): 9.3 µg·h/mL | concentration at 12 hr ([2]; Sprague Dawley, rat, male rats, Brain, read-out: Clast): 546 ng/mL | AUC(0-inf) [2, 6]: 885 µg·h/mL | Cmax [2, 6]: 38100 ng/mL | Tmax [2, 6]: 4 h | half-life [2, 6]: 8.06 h | concentration at 48 hr ([2]; Sprague Dawley, rat, male rats, Liver, read-out: Clast): 965 ng/mL | AUC(0-inf) [2, 7]: 187 µg·h/mL | Cmax [2, 7]: 9140 ng/mL | Tmax [2, 7]: 1 h | half-life [2, 7]: 7.79 h | concentration at 48 hr ([2]; Sprague Dawley, rat, male rats, Lung, read-out: Clast): 189 ng/mL | AUC(0-inf) [2, 8]: 132 µg·h/mL | Cmax [2, 8]: 6830 ng/mL | Tmax [2, 8]: 4 h | half-life [2, 8]: 6.87 h | concentration at 48 hr ([2]; Sprague Dawley, rat, male rats, Pancreas, read-out: Clast): 86 ng/mL | AUC(0-inf) [2, 9]: 980 µg·h/mL | Cmax [2, 9]: 59100 ng/mL | Tmax [2, 9]: 4 h | half-life [2, 9]: 6.15 h | concentration at 48 hr ([2]; Sprague Dawley, rat, male rats, Plasma, read-out: Clast): 542 ng/mL | Tissue Concentrations, Brain ([2]; male rats, 1 hr): 0.93 μg/mL or μg/g | Tissue Concentrations, Liver ([2]; male rats, 1 hr): 34.7 μg/mL or μg/g | Tissue Concentrations, Lung ([2]; male rats, 1 hr): 9.14 μg/mL or μg/g | Tissue Concentrations, Pancreas ([2]; male rats, 1 hr): 6.03 μg/mL or μg/g | Tissue Concentrations, Plasma ([2]; male rats, 1 hr): 47.3 μg/mL or μg/g | Tissue Concentrations, Brain ([2]; male rats, 4 hr): 0.96 μg/mL or μg/g | Tissue Concentrations, Liver ([2]; male rats, 4 hr): 38.1 μg/mL or μg/g | Tissue Concentrations, Lung ([2]; male rats, 4 hr): 8.99 μg/mL or μg/g | Tissue Concentrations, Pancreas ([2]; male rats, 4 hr): 6.83 μg/mL or μg/g | Tissue Concentrations, Plasma ([2]; male rats, 4 hr): 59.1 μg/mL or μg/g | Tissue Concentrations, Brain ([2]; male rats, 12 hr): 0.55 μg/mL or μg/g | Tissue Concentrations, Liver ([2]; male rats, 12 hr): 26.3 μg/mL or μg/g | Tissue Concentrations, Lung ([2]; male rats, 12 hr): 5.17 μg/mL or μg/g | Tissue Concentrations, Pancreas ([2]; male rats, 12 hr): 3.65 μg/mL or μg/g | Tissue Concentrations, Plasma ([2]; male rats, 12 hr): 24.8 μg/mL or μg/g | Tissue Concentrations, Brain ([2]; male rats, 48 hr): BLQ | Tissue Concentrations, Liver ([2]; male rats, 48 hr): 0.97 μg/mL or μg/g | Tissue Concentrations, Lung ([2]; male rats, 48 hr): 0.19 μg/mL or μg/g | Tissue Concentrations, Pancreas ([2]; male rats, 48 hr): 0.09 μg/mL or μg/g | Tissue Concentrations, Plasma ([2]; male rats, 48 hr): 0.54 μg/mL or μg/g | tlast ([2]; male rats, Brain): 12 h | tlast ([2]; male rats, Liver): 48 h | tlast ([2]; male rats, Lung): 48 h | tlast ([2]; male rats, Pancreas): 48 h | tlast ([2]; male rats, Plasma): 48 h | concentration at 48 h ([2]; male, Sprague Dawley, rat, all tissues (liver, lung, pancreas, brain), rats, 48 hours after administration, read-out: concentrations in all tissues): < 1000 ng/mL | Kp at 1 h ([2]; male, Sprague Dawley, rat, brain, male rats, 1 hr, read-out: Tissue/Plasma Ratio, Brain): 0.02 | Kp at 4 hr ([2]; male, Sprague Dawley, rat, brain, male rats, 4 hr, read-out: Tissue/Plasma Ratio, Brain): 0.02 | Kp at 12 hr ([2]; male, Sprague Dawley, rat, brain, male rats, 12 hr, read-out: Tissue/Plasma Ratio, Brain): 0.02 | Kp ([2]; male, Sprague Dawley, rat, brain, male rats, Brain, read-out: Cmax Ratio (Tissue/Plasma)): 0.02 | Kp ([2]; male, Sprague Dawley, rat, brain, rats, 1 to 48 hours after administration, read-out: tissue-to-plasma concentration ratios, brain): 0.02 | Kp at 1 h ([2]; male, Sprague Dawley, rat, liver, male rats, 1 hr, read-out: Tissue/Plasma Ratio, Liver): 0.73 | Kp at 4 hr ([2]; male, Sprague Dawley, rat, liver, male rats, 4 hr, read-out: Tissue/Plasma Ratio, Liver): 0.64 | Kp at 12 hr ([2]; male, Sprague Dawley, rat, liver, male rats, 12 hr, read-out: Tissue/Plasma Ratio, Liver): 1.06 | Kp at 48 hr ([2]; male, Sprague Dawley, rat, liver, male rats, 48 hr, read-out: Tissue/Plasma Ratio, Liver): 1.78 | Kp ([2]; male, Sprague Dawley, rat, liver, male rats, Liver, read-out: Cmax Ratio (Tissue/Plasma)): 0.64 | Kp ([2]; male, Sprague Dawley, rat, liver, rats, 1 to 48 hours after administration, read-out: tissue-to-plasma concentration ratios, liver): 0.7 to 1.8 | Kp at 1 h ([2]; male, Sprague Dawley, rat, lung, male rats, 1 hr, read-out: Tissue/Plasma Ratio, Lung): 0.19 | Kp at 4 hr ([2]; male, Sprague Dawley, rat, lung, male rats, 4 hr, read-out: Tissue/Plasma Ratio, Lung): 0.15 | Kp at 12 hr ([2]; male, Sprague Dawley, rat, lung, male rats, 12 hr, read-out: Tissue/Plasma Ratio, Lung): 0.21 | Kp at 48 hr ([2]; male, Sprague Dawley, rat, lung, male rats, 48 hr, read-out: Tissue/Plasma Ratio, Lung): 0.35 | Kp ([2]; male, Sprague Dawley, rat, lung, male rats, Lung, read-out: Cmax Ratio (Tissue/Plasma)): 0.15 | Kp ([2]; male, Sprague Dawley, rat, lung, rats, 1 to 48 hours after administration, read-out: tissue-to-plasma concentration ratios, lung): 0.15 to 0.35 | Kp at 1 h ([2]; male, Sprague Dawley, rat, pancreas, male rats, 1 hr, read-out: Tissue/Plasma Ratio, Pancreas): 0.13 | Kp at 4 hr ([2]; male, Sprague Dawley, rat, pancreas, male rats, 4 hr, read-out: Tissue/Plasma Ratio, Pancreas): 0.12 | Kp at 12 hr ([2]; male, Sprague Dawley, rat, pancreas, male rats, 12 hr, read-out: Tissue/Plasma Ratio, Pancreas): 0.15 | Kp at 48 hr ([2]; male, Sprague Dawley, rat, pancreas, male rats, 48 hr, read-out: Tissue/Plasma Ratio, Pancreas): 0.15 | Kp ([2]; male, Sprague Dawley, rat, pancreas, male rats, Pancreas, read-out: Cmax Ratio (Tissue/Plasma)): 0.12 | Kp ([2]; male, Sprague Dawley, rat, pancreas, rats, 1 to 48 hours after administration, read-out: tissue-to-plasma concentration ratios, pancreas): 0.12 to 0.15 | clearance ([3]; dog): very low clearance | F ([3]; male dogs, 10 mg/kg, Fasted): 53% | tlast ([3]; male dogs, 10 mg/kg, Fasted): 48 h | F ([3]; male dogs, 10 mg/kg, Fed): 53% | tlast ([3]; male dogs, 10 mg/kg, Fed): 48 h | concentration at 48 hr ([3]; male, beagle, dog, plasma, 10 mg/kg, male dogs, 10 mg/kg, Fasted): 66 ng/mL | concentration at 48 hr ([3]; male, beagle, dog, plasma, 10 mg/kg, male dogs, 10 mg/kg, Fed): 47 ng/mL | half-life ([3]; male, beagle, dog, plasma, po, 10 mg/kg, male dogs, 10 mg/kg, Fasted, read-out: t1/2 (converted)): 6.3 h | half-life ([3]; male, beagle, dog, plasma, po, 10 mg/kg, male dogs, 10 mg/kg, Fed, read-out: t1/2 (converted)): 6.6 h | AUC(0-inf) [3, 10]: 35.8 µg·h/mL | Cmax [3, 10]: 7900 ng/mL | Tmax [3, 10]: 1.5 h | AUC(0-inf) [3, 11]: 35.7 µg·h/mL | Cmax [3, 11]: 4100 ng/mL | Tmax [3, 11]: 2.7 h | half-life ([3]; male, beagle, dog, plasma, po, administered orally to dogs, read-out: half-life): 5 to 9 h | bioavailability ([3]; male, beagle, plasma, po, dog, 10 mg/kg orally in a methylcellulose suspension): 53% | pKi [4]: ~5.52 | NOAEL at 7 days (in vivo): 100 mg/kg/day | food consumption, hematologies, coagulations parameters, ECG measurements (dogs): no effects | gross lesions and histopathological findings (dogs): no test article related gross lesions or histopathological findings | body weight loss (dogs; 100 mg/kg/day): 0.3 kg
